# Laboratory results taken from patent US20110002843A1, “METHOD OF DETECTING MYOCARDIAL DYSFUNCTION IN PATIENTS HAVING A HISTORY OF ASTHMA OR BRONCHOSPASM” (priority 2005, published 2011).
# pEC50: −log10 of the molar value.
# What was measured:
# Adenosine Receptor A1 = target: T1, Adenosine Receptor A1 (Cavia porcellus, UniProt P47745); test: G.P. Right Atrium (Negative Inotropy) bioassay; design: species or system guinea pig
# T1 construct: prepared guinea pig assays for binodenoson; from tissue; host or cells: isolated guinea pig right / left atrium
# T1 sequence (P47745 1-326): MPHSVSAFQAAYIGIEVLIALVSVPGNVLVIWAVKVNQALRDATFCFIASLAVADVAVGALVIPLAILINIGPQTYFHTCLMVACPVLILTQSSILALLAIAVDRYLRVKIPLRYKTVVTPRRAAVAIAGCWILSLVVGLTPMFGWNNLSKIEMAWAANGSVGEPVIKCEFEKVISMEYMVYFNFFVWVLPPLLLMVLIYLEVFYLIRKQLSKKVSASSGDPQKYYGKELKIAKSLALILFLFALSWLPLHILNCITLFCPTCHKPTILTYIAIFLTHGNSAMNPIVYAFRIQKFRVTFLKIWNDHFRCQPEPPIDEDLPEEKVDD
# From the text: It is further preferable to use compounds that are selective for the A2A receptor over the A2B receptor. Additional methods are known in the art for performing bioassays and are useful to identify selectivity to the A2B receptor as well as confirming selectivity and potency in vivo. Such bioassays are typically performed prior to animal and human trials.
# [1] = Isolated and denervated atrial preparations, rate
# cytochrome P450 enzymes = test: In vitro inhibition of cytochrome P450 enzymes; type: in vitro ADME
compound,measurement,setting,value
"Nc1nc(N/N=C/C2CCCCC2)nc2c1ncn2[C@@H]1O[C@H](CO)[C@@H](O)[C@H]1O (stereo in doubt) [Binodenoson, 2-{2-[(Cyclohexyl)methylene]hydrazino}adenosine]",pEC50,Adenosine Receptor A1,4.68
same,atrial rate,[1],did not increase the rate
same,inhibition of cytochrome P450 enzymes,cytochrome P450 enzymes,no significant inhibition
